Bridge positions count the residues as written; N and C are the ends. Square brackets hold non-standard residues; d marks the D form. Peptide text beside a SMILES is read from it. Orn = NCCC[C@H](N)C(=O)O; Mpa = O=C(O)CCS
Tested on: preterm contractions
Experiment: not given
Conditions: studied clinically (Goodwin, et al., 1994); cited from earlier work

Structure (SMILES)	inhibition of preterm contractions versus placebo
CCOc1ccc(C[C@H]2NC(=O)CCSSC[C@@H](C(=O)N3CCC[C@H]3C(=O)N[C@@H](CCCN)C(=O)NCC(N)=O)NC(=O)[C@H](CC(N)=O)NC(=O)[C@H]([C@@H](C)O)NC(=O)[C@H]([C@@H](C)CC)NC2=O)cc1 [atosiban] ([Mpa][dY](Et)ITNCP[Orn]G-NH2; disulfide 1-6)	more significant inhibition of preterm contractions than did placebo

Tested on: not given
Experiment: not given
Conditions: not given

Structure (SMILES)	melting point [°C]
CC(C)(C)OC(=O)C(C(=O)Cc1cccc(C(F)(F)F)c1)N1C(=O)C(N2C(=O)OCC2c2ccccc2)C1C=Cc1ccccc1 (mixture of isomers) [Example 50, tert-Butyl 2(R,S)-[3-(trifluoro)phenylacetyl]-2-[3(S)-(4(S)-phenyloxazolidin-2-on-3-yl)-4(R)-(2-styryl)-azetidin-2-on-1-yl]acetate]	158 to 160
CC(C)(C)C[C@@H](C(=O)OCc1ccccc1)N1C(=O)[C@H](N2C(=O)OC[C@H]2c2ccccc2)[C@@H]1C=Cc1ccco1 [Example 27, Benzyl 2(S)-(2,2-dimethyl)propyl-2-[3(R)-(4(R)-phenyloxazolidin-2-on-3-yl)-4(S)-(1-(fur-2-yl)-ethylen-2-yl)-azetidin-2-on-1-yl]acetate]	180
CC(C)C[C@@H](C(=O)OCc1ccccc1)N1C(=O)[C@@H](N2C(=O)OC[C@@H]2c2ccccc2)[C@H]1CCc1ccccc1 [Example 28, Benzyl 2-(S)-isobutyl-2-[3(S)-(4(S)-phenyloxazolidin-2-on-3-yl)-4(R)-(2-(phenyl)-ethyl)-azetidin-2-on-1-yl]acetate]	138 to 140
CC1(C(C(=O)NCc2ccccc2)N2C(=O)C(N3C(=O)OCC3c3ccccc3)C2C=Cc2ccccc2)OCCO1 [Example 30, N-[Benzyl]-2-[(1,1-ethyleneketal)acetyl]-2-[3(S)-(4(S)-phenyloxazolidin-2-on-3-yl)-4(R)-(2-styryl)-azetidin-2-on-1-yl)acetamide]	150 to 152

Tested on: golden hamsters
Experiment: vasopressin-induced flank marking in golden hamsters
Assay type: in vivo, golden hamsters (Mesocricetus auratus)
Conditions: microinjection into anterior hypothalamus as cocktail with 1 μM vasopressin; scored 10 minutes
Method: In golden hamsters, a particular stereotypy, flank marking behavior, can be induced by micro-injections of vasopressin ([…], 1-100 μM) into the anterior hypothalamus (Ferris, et al., Science, 224, 521-523 (1984); Albers and Ferris, Regulatory Peptides, 12, 257-260 (1985); Ferris et al., European Journal of Pharmacology, 154, 153-159 (1988)). Following the releasing stimulus, the behavior is initiated by grooming, licking and combing of the large sebaceous glands on the dorsolateral flanks. Bouts of flank gland grooming may be so intense that the flank region is left matted and soaked in saliva. After grooming, the hamsters display flank marking behavior, a type of scent marking involved in olfactory communication (Johnston, Physio. Behav., 51, 437-448 (1985); Ferris, et al., Physio. Behav., 40, 661-664 (1987)), by arching the back and rubbing the flank glands vigorously against any vertical surface.
All animals were adult male golden hamsters (Mesocricetus auratus) weighing approximately 160 gm. The animals underwent stereotaxic surgery, and were allowed to recover before behavioral testing. […]
The hamsters were microinjected with 1 μM vasopressin in a volume of […]. […] Animals were scored for flank marking for a period of 10 minutes in a clean cage.

Structure (SMILES)	inhibition of vasopressin-induced flank marking
CC(C)(C)C(=O)C(C(=O)OCc1ccccc1)N1C(=O)C(N2C(=O)OCC2c2ccccc2)C1C=Cc1ccccc1 (mixture of isomers) [Example 42, Benzyl 2-(R,S)-[2,2-dimethylpropanoyl]-2-[3(S)-(4(S)-phenyloxazolidin-2-on-3-yl)-4(R)-(2-styryl)azetidin-2-on-1-yl]acetate]	inhibited vasopressin-induced flank marking in a dose dependent manner

Biological target: T1, human vasopressin V1a receptor (Homo sapiens, UniProt P37288)
T1 construct: expressed in transfected cells; host or cells: CHO (hV1a cell line), membrane preparation
T1 sequence (P37288 whole entry): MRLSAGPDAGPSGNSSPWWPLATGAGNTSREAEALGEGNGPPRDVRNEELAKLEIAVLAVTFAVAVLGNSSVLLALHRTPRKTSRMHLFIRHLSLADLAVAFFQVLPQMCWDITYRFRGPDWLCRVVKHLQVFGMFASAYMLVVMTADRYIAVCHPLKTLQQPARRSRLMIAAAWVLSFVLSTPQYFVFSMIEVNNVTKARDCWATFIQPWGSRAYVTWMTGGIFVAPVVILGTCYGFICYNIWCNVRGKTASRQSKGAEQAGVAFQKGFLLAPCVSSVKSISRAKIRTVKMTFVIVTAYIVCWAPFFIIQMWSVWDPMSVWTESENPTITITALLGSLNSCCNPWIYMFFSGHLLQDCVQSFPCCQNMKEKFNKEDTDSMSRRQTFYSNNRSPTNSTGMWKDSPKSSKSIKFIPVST
Experiment: human vasopressin V1a receptor binding, [3H]PMP-AVP, hV1a (CHO) cell membranes
Conditions: [3H]PMP-AVP 0.2 nM, read-out: BINDING AFFINITY (IC50 (nM))
Method: The human vasopressin V1a receptor has been cloned and expressed (Thibonnier et al., Journal of Biological Chemistry, 269, 3304-3310 (1994)). The nucleotide sequence has been deposited in the EMBL Databank under accession number Z11690.
The hV1a cell line was grown in alpha-MEM (alpha modification of Minimum essential medium Eagle, Sigma, St. Louis, Mo., USA) with 10% fetal bovine serum and 250 μg/ml G418 (Gibco, Grand Island, N.Y., USA). To prepare membranes, hV1a cells were grown to confluency in 20 roller bottles. Cells were dissociated with enzyme-free cell dissociation medium (Specialty Media, Lavallette, N.J., USA) and centrifuged at 2500 rpm for 10 minutes. The pellet was resuspended in 40 mL of Tris-HCl (tris[hydroxymethyl]aminomethane hydrochloride) buffer (50 mM, pH 7.4) and homogenized for 1 minute with a Tekmar Tissumizer (Cincinnatti, Ohio USA). The suspension was centrifuged at 40,000×g for 10 minutes. The pellet was resuspended and centrifuged as above. The final pellet was suspended in 80 mL of Tris 7.4 buffer and stored in 4 mL aliquots at −80° C. For assay, aliquots were resuspended in assay buffer and diluted to 125 μg protein per mL. Protein concentration was determined by BCA assay (Pierce, Rockford, Ill., USA).
Assay buffer was prepared by adjusting the pH of a solution of 50 mMol HEPES (N-2-Hydroxyethylpiperazine-N′-2-ethanesulfonic acid, Sigma, St. Louis, Mo., USA), 5 mMol MgCl2, and 1 mMol dithiothreitol pH 7.4 with NaOH, after which 40 μg/mL bacitracin and 10 μg/mL aprotinin were added. The radioligand for binding assays was [^3H]PMP-AVP (Manning vasopressin antagonist, 56 Ci/mMol, DuPont NEN, Boston, MA, USA). The order of additions was 195 μL assay buffer, 200 μL hV1a membranes (25 μg protein) in assay buffer, 5 μL of test agent in dimethylsulfoxide (DMSO) or DMSO alone, and 100 μL [^3H]PMP-AVP in assay buffer (final concentration 0.2 nM). Incubations were for one hour at room temperature. […] The filters were washed with ice-cold 50 mM Tris-HCl (pH 7.7 at 25° C.) and the filter circles were placed in scintillation vials, to which were then added 5 mL Ready Protein Plus scintillation fluid, and counted in a liquid scintillation counter. […] IC50 values were calculated by nonlinear least-squares curve-fitting to a 4-parameter logistic model.

Structure (SMILES)	IC50 [nM]
COC(=O)C(N1C(=O)[C@H](N2C(=O)OC[C@H]2c2ccccc2)[C@@H]1C=Cc1ccco1)C(O)(C(=O)c1ccccc1)c1ccccc1 (mixture of isomers) [Example 39, Methyl 2-(R,S)-[1-hydroxy-1,2-diphenyl-2-oxo-ethyl]-2-[3(R)-(4(R)-phenyloxazolidin-2-on-3-yl)-4(S)-(1-(fur-2-yl)-ethylen-2-yl)-azetidin-2-on-1-yl]acetate]	13
CC(C)(C)C(=O)C(C(=O)OCc1cccc(Cl)c1)N1C(=O)C(N2C(=O)OCC2c2ccccc2)C1C=Cc1ccccc1 (mixture of isomers) [Example 46, 3-Chlorobenzyl 2(R,S)-[2,2-dimethylpropanoyl]-2-[3(S)-(4(S)-phenyloxazolidin-2-on-3-yl)-4(R)-(2-styryl)-azetidin-2-on-1-yl]acetate]	11
CC(C)(C)OC(=O)C(C(=O)Cc1cccc(C(F)(F)F)c1)N1C(=O)C(N2C(=O)OCC2c2ccccc2)C1C=Cc1ccccc1 (mixture of isomers) [Example 50, tert-Butyl 2(R,S)-[3-(trifluoro)phenylacetyl]-2-[3(S)-(4(S)-phenyloxazolidin-2-on-3-yl)-4(R)-(2-styryl)-azetidin-2-on-1-yl]acetate]	64
CC(C)(C)C[C@@H](C(=O)OCc1ccccc1)N1C(=O)[C@H](N2C(=O)OC[C@H]2c2ccccc2)[C@@H]1C=Cc1ccco1 [Example 27, Benzyl 2(S)-(2,2-dimethyl)propyl-2-[3(R)-(4(R)-phenyloxazolidin-2-on-3-yl)-4(S)-(1-(fur-2-yl)-ethylen-2-yl)-azetidin-2-on-1-yl]acetate]	28
CCC1(C(C(=O)NCc2ccccc2)N2C(=O)C(N3C(=O)OCC3c3ccccc3)C2C=Cc2ccccc2)OCCO1 [Example 31, N-[benzyl]-2-[(1,1-ethyleneketal)propionyl]-2-[3(S)-(4(S)-phenyloxazolidin-2-on-3-yl)-4(R)-(2-styryl)-azetidin-2-on-1-yl]acetamide]	23
CC(C)C[C@@H](C(=O)N1CCC(CCN2CCCCC2)CC1)N1C(=O)[C@@H](N2C(=O)OC[C@@H]2c2ccccc2)[C@H]1/C=C/c1ccccc1 [Example 34, 1-{2-(S)-isobutyl-2-[3(S)-(4(S)-phenyloxazolidin-2-on-3-yl)-4(R)-(2-styryl)-azetidin-2-on-1-yl]acetyl}-4-(2-(piperidin-1-yl)-ethyl)piperidine]	78
CC(C)(C)C(O)C(C(=O)N1CCC(CCN2CCCCC2)CC1)N1C(=O)[C@@H](N2C(=O)OC[C@@H]2c2ccccc2)[C@H]1C=Cc1ccccc1 (stereo partly drawn) [Example 40, 1-{2-(R,S)-[1-hydroxy-2,2-dimethylpropyl]-2-[3(S)-(4(S)-phenyloxazolidin-2-on-3-yl)-4(R)-(2-styryl)-azetidin-2-on-1-yl]acetyl}-4-(2-(piperidin-1-yl)-ethyl)piperidine]	40
CC(C)(C)C(=O)[C@H](C(=O)OCc1ccccc1)N1C(=O)[C@@H](N2C(=O)OC[C@@H]2c2ccccc2)[C@H]1C=Cc1ccco1 [Example 54A, Benzyl 2-(R)-[2,2-dimethylpropanoyl]-2-[3(S)-(4(S)-phenyloxazolidin-2-on-3-yl)-4(R)-(1-(fur-2-yl)ethylen-2-yl)-azetidin-2-on-1-yl]acetate]	2
CC(C)(C)C(=O)[C@@H](C(=O)OCc1ccccc1)N1C(=O)[C@@H](N2C(=O)OC[C@@H]2c2ccccc2)[C@H]1C=Cc1ccco1 [Example 54B, Benzyl 2-(S)-[2,2-dimethylpropanoyl]-2-[3(S)-(4(S)-phenyloxazolidin-2-on-3-yl)-4(R)-(1-(fur-2-yl)ethylen-2-yl)-azetidin-2-on-1-yl]acetate]	9
CCC1(C(C(=O)NCc2cccc(C(F)(F)F)c2)N2C(=O)[C@@H](N3C(=O)OC[C@@H]3c3ccccc3)[C@H]2/C=C/c2ccccc2)OCCO1 (stereo partly drawn) [Example 67]	5
CCC1(C(C(=O)N2CCN(CCc3ccccc3)CC2)N2C(=O)[C@@H](N3C(=O)OC[C@@H]3c3ccccc3)[C@H]2/C=C/c2ccccc2)OCCO1 (stereo partly drawn) [Example 78]	16
CC(C)C[C@@H](C(=O)NCCCN1CCN(C)CC1)N1C(=O)[C@@H](N2C(=O)OC[C@@H]2c2ccccc2)[C@H]1/C=C/c1ccccc1 [Example 97]	42
CC(C)C[C@@H](C(=O)NCc1cccc(Cl)c1)N1C(=O)[C@@H](N2C(=O)OC[C@@H]2c2ccccc2)[C@H]1/C=C/c1ccccc1 [Example 109]	40
Cc1cccc(CNC(=O)[C@H](CC(C)C)N2C(=O)[C@@H](N3C(=O)OC[C@@H]3c3ccccc3)[C@H]2/C=C/c2ccccc2)c1 [Example 112]	25
CC(C)C[C@@H](C(=O)NCc1cccc(C(F)(F)F)c1)N1C(=O)[C@@H](N2C(=O)OC[C@@H]2c2ccccc2)[C@H]1/C=C/c1ccccc1 [Example 113]	41

From patent US6521611B2 (Eli Lilly and Company, priority 1996, dated 2003)
